In general, Kd refers to the concentration at which binding is half-saturated. One may read the IC50 as the concentration that inhibits the measured activity by half.

SMILES strings stand for the structures.

From US20250136619A1, “HETEROBIFUNCTIONAL COMPOUNDS AND THEIR USE IN TREATING DISEASE” (HALDA THERAPEUTICS OPCO, INC., priority 2021, published 2025) come the findings set out here.

For one test, the target named is PLK1 (Homo sapiens (Human), UniProt P53350). The experiment in a line: KdELECT assay for binding affinity to PLK1. Here is the method: Compounds were tested using a KdELECT assay. Kinase-tagged T7 phage strains were prepared in an E. coli host derived from the BL21 strain. E. coli were grown to log-phase and infected with T7 phage and incubated with shaking at 32° C. until lysis. The lysates were centrifuged and filtered to remove cell debris. The remaining kinases were produced in HEK-293 cells and subsequently tagged with DNA for qPCR detection. Streptavidin-coated magnetic beads were treated with biotinylated small molecule ligands for 30 minutes at room temperature to generate affinity resins for kinase assays. The liganded beads were blocked with excess biotin and washed with blocking buffer (SeaBlock (Pierce), 1% BSA, 0.05% Tween 20, 1 mM DTT) to remove unbound ligand and to reduce non-specific binding. Binding reactions were assembled by combining kinases, liganded affinity beads, and test compounds in 1×binding buffer (20% SeaBlock, 0.17×PBS, 0.05% Tween 20, 6 mM DTT). Test compounds were prepared as 111X stocks in 100% DMSO. Kd values were determined using an 11-point 3-fold compound dilution series with three DMSO control points. All compounds for Kd measurements are distributed by acoustic transfer (non-contact dispensing) in 100% DMSO.
The compounds were then diluted directly into the assays such that the final concentration of DMSO was 0.9%. […] The kinase concentration in the eluates was measured by qPCR.

The next test deals with androgen receptor (Homo sapiens, UniProt P10275). The test is described as follows: Radioligand ([3H]methyltrienolone) assay for binding affinity to androgen receptor. The note with it: cell cytosol, 1 nM [3H]methyltrienolone. Here is the method:
Fractions of cell cytosol ([…]) were incubated for 24 hr at 4° C. with 1 nM [^3H]methyltrienolone in the absence or presence of the test compound in a buffer containing 25 mM Hepes-Tris (pH 7.4), 1 mM EDTA, 10 mM Na2MoO4, 2 mM DTT, 5 μM triamcinolone acetonide, and 10% glycerol. Nonspecific binding was determined in the presence of 1 μM testosterone. Following incubation, the samples were filtered rapidly under vacuum through glass fiber filters (GF/B, Packard) presoaked with 0.3% PEI and rinsed several times with ice-cold 50 mM Tris —HCl using a 96-sample cell harvester (Unifilter, Packard). The filters were dried then counted for radioactivity in a scintillation counter (Topcount, Packard) using a scintillation cocktail (Microscint 0, Packard). The results are expressed as a percent inhibition of the control radioligand specific binding. The standard reference compound is testosterone, which is tested in each experiment at several concentrations to obtain a competition curve from which its IC50 is calculated.

The target of another test is BRD4-BD1 (Homo sapiens (Human), UniProt O60885). The test is described as follows: bromoKdELECT assay for binding affinity to BRD4-BD1. Here is the method: (§1) Compounds were tested using a bromoKdELECT assay. T7 phage strains displaying bromodomains were grown in parallel in 24-well blocks in an E. coli host derived from the BL21 strain. E. coli were grown to log-phase and infected with T7 phage from a frozen stock (multiplicity of infection=0.4) and incubated with shaking at 32° C. until lysis (90-150 minutes). The lysates were centrifuged (5,000×g) and filtered (0.2 μm) to remove cell debris. Streptavidin-coated magnetic beads were treated with biotinylated small molecule or acetylated peptide ligands for 30 minutes at room temperature to generate affinity resins for bromodomain assays. The liganded beads were blocked with excess biotin and washed with blocking buffer (SeaBlock (Pierce), 1% BSA, 0.05% Tween 20, 1 mM DTT) to remove unbound ligand and to reduce nonspecific phage binding. Binding reactions were assembled by combining bromodomains, liganded affinity beads, and test compounds in 1×binding buffer (17% SeaBlock, 0.33×PBS, 0.04% Tween 20, 0.02% BSA, 0.004% Sodium azide, 7.4 mM DTT). Test compounds were prepared as 1000X stocks in 100% DMSO. Kds were determined using an 11-point 3-fold compound dilution series with one DMSO control point. All compounds for Kd measurements are distributed by acoustic transfer (non-contact dispensing) in 100% DMSO. The compounds were then diluted directly into the assays such that the final concentration of DMSO was 0.09%. All reactions performed in polypropylene 384-well plates. Each was a final volume of 0.02 ml. The assay plates were incubated at room temperature with shaking for 1 hour and the affinity beads were washed with wash buffer (1×PBS, 0.05% Tween 20). The beads were then resuspended in elution buffer (1×PBS, 0.05% Tween 20, 2 μM non-biotinylated affinity ligand) and incubated at room temperature with shaking for 30 minutes. The bromodomain concentration in the eluates was measured by qPCR.

A further test has as its target BRD4-BD2 (Homo sapiens (Human), UniProt O60885). The test is described as follows: bromoKdELECT assay for binding affinity to BRD4-BD2. Here is the method: as §1
Another test deals with BTK (Homo sapiens (Human), UniProt Q06187). The test is described as follows: KdELECT assay for binding affinity to BTK. The method in brief:
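Competition binding of test compound against bead-immobilized biotinylated ligand; kinase as T7 phage fusion or HEK-293-expressed DNA-tagged protein. 11-point 3-fold dilution, 0.9% DMSO final, 1 h room temperature with shaking. Bound kinase eluted with 0.5 μM non-biotinylated ligand and quantified by qPCR; Kd derived.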

For the next test, the target named is KIF11 (Homo sapiens (Human), UniProt P52732). The experiment in a line: Enzyme-coupled ATPase assay for inhibition of KIF11. The format is biochemical. The settings on record: KIF11 ATPase rate, 1 mM ATP. Here is the method: The ATPase rate for Kif11 was monitored using an enzyme-coupled assay. Porcine brain microtubules (Cat #MT002) were purchased from Cytoskeleton (Denver, CO) and polymerized as per manufacturer's instructions and stored at 1 mg/ml at −80° C. GST-tagged Kif11/Eg5 (Cat #EG01-XL) and the Kinesin ELIPA Biochem Kit (Cat #BK060) was also purchased from Cytoskeleton. Taxol, microtubules, 7-methylthioguanosine (MESG), and purine nucleoside phosphorylase (PNP) were added to final concentrations of […], 0.05 mg/mL, […], 1U/m, 1 mM in EPLIA Reaction Buffer and allowed to incubate at room temperature for 15 minutes under rocking. Kif11 was then added at a final concentration of […] and allowed to incubate at room temperature for an additional 15 minutes. Master mix ([…]) was added to a black 384-well plate (Corning 3575), to which […] of DMSO or compound were added to appropriate wells. Plates were incubated at room temperature for 2 hours. ATPase reactions were initiated by addition of 1 mM ATP and monitored by OD340 every 1 minute over the course of 2 hours. The rate of the reaction was taken from the linear part of the resulting curve. IC50 was determined by plotting inhibitor concentration v. ATPase rate.
Chain of KIF11 (P52732 1-368): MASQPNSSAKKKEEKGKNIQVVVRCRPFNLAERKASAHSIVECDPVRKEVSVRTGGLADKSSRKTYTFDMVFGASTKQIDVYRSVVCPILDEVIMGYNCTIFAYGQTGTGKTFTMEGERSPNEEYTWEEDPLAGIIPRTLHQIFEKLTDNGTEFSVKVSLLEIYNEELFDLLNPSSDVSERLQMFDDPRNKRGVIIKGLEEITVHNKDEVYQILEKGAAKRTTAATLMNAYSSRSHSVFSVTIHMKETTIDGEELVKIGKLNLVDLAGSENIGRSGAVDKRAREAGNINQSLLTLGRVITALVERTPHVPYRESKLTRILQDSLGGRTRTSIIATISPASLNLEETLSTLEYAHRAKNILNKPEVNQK

Chain of androgen receptor (P10275 whole entry, looked up): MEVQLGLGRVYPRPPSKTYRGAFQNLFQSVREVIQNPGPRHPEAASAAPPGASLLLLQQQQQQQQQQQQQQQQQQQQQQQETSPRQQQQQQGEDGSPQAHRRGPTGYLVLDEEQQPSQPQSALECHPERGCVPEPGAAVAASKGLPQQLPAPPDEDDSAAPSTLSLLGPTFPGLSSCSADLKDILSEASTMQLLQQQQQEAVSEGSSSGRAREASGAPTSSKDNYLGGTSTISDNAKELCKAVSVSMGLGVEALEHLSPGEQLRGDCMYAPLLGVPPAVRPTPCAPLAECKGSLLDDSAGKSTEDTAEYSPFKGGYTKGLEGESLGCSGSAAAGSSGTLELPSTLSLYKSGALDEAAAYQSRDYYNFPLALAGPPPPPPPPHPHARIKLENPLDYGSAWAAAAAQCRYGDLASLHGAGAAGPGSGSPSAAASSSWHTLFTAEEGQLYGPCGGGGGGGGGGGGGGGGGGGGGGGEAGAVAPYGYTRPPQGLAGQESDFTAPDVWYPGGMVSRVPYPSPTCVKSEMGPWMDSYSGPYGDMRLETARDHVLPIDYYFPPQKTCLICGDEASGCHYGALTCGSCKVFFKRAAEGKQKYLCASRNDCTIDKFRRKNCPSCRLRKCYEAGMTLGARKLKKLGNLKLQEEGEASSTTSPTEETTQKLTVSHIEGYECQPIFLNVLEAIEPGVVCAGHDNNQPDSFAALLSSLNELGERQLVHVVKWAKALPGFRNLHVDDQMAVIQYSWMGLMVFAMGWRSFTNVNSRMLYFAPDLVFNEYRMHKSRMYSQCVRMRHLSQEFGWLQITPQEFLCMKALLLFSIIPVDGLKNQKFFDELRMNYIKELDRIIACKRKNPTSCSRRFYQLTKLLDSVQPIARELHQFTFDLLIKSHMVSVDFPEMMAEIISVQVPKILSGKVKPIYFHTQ
Chain of BTK (Q06187 whole entry, the tested form may be a part): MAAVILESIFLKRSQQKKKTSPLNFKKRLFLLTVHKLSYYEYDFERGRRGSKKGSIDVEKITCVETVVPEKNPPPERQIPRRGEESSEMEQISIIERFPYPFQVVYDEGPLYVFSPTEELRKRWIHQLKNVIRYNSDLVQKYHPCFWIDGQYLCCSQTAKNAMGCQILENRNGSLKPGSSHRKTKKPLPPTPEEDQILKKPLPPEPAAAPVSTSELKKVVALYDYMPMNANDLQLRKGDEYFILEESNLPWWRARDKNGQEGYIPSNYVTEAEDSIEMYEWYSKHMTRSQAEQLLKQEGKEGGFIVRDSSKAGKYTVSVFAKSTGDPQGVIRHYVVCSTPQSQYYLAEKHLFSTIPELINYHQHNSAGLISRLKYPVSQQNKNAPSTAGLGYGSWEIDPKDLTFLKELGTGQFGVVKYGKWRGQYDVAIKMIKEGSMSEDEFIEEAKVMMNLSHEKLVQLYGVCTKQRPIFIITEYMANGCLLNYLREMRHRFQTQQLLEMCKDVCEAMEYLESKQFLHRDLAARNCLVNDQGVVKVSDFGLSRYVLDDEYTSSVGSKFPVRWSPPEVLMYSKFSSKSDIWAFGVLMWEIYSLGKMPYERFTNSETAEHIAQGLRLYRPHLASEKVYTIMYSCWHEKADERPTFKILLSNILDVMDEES
Chain of PLK1 (P53350 whole entry): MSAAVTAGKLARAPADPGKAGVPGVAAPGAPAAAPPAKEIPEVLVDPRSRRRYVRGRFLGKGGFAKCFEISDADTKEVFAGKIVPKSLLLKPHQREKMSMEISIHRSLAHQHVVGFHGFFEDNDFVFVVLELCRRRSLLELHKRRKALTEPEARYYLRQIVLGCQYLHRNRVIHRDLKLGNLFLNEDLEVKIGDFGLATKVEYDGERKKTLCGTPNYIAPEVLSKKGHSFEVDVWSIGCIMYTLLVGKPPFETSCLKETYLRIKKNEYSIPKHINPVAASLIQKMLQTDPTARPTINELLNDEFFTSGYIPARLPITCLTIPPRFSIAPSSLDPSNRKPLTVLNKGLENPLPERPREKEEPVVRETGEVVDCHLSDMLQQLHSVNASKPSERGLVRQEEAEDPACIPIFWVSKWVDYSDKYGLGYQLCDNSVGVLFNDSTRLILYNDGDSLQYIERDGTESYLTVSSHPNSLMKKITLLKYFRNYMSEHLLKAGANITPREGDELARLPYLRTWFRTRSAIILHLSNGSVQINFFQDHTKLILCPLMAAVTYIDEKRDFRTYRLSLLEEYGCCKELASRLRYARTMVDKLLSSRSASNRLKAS

For `CCC1C(=O)N(C)c2cnc(Nc3ccc(C(=O)NCCN(C)C(=O)CO[C@H]4CC[C@H]5[C@@H]6CC[C@H]7CC(=O)CC[C@]7(C)[C@H]6CC[C@]45C)cc3OC)nc2N1C1CCCC1` (stereo partly drawn) [Compound I-41], the Kd at PLK1 was under 50 nM.

As to `Cc1sc2c(c1C)C(c1ccc(Cl)cc1)=N[C@@H](CC(=O)NCCOCCOCCOCCOCCOCCOCCOc1ccc(C(=O)NC3C(C)(C)C(Oc4ccc(C#N)c(Cl)c4)C3(C)C)cc1)c1nnc(C)n1-2` (stereo partly drawn) [Compound I-34], the Kd at androgen receptor was under 50 nM; at BRD4-BD1 it was 50 to 500 nM; on BRD4-BD2 it was 50 to 500 nM.

For `CN(OCCOCCOCCOCCOCCOCCOCCOCCOCCOC/C=C/C(=O)N1CCC[C@@H](n2nc(-c3ccc(Oc4ccccc4)cc3)c3c(N)ncnc32)C1)C(=O)N1N=C(c2cc(F)ccc2F)SC1(CCCN)c1ccccc1` (stereo partly drawn) [Compound I-53], the dissociation constant Kd on BTK is under 50 nM. This compound also displayed a concentration for half-maximal inhibition (IC50) at KIF11 of 50 to 500 nM.
